Results from patent publication US20240025903A1, “Bicyclic Compounds and Uses Thereof for the Treatment of Diseases” (Athira Pharma, Inc., priority 2020, published 2024).
Like-named read-outs stand apart in the source and are kept apart here.

Tests used:
[1] = In vitro stability in rat plasma; type: in vitro ADME; details: 5 μM, 37° C.
Description: (§1) Bioavailability can be estimated by compound stability when exposed to conditions in the body. As an initial assessment of stability properties in a variety of conditions present in animals, exemplary compounds were tested for stability in a battery of simulated body compartments. Compounds were tested for stability in the following solutions: simulated gastric fluid (SGF: 34.2 mM NaCl, pH 1.2), simulated gastric fluid with the digestive enzyme pepsin (SGF+Enzyme: SGF with 3.2 mg/ml pepsin), simulated intestinal fluid with the mixture of enzymes in porcine pancreatin (SIF+Enzyme: 28.7 mM NaH2PO4, 105.7 mM NaCl, pH 6.8, 10 mg/ml pancreatin), rat plasma, and human plasma.
(§2) Test compounds were incubated at a final concentration of 5 μM in the above solutions at 37° C. with samples removed at the following time points: 0, 1, 2, and 4 hours. Reactions were stopped and prepared for quantification by addition of excess quench solution containing an internal standard (acetonitrile, 200 ng/mL bucetin). Test compound and internal standard in each sample was quantified by LC-MS/MS, and after internal normalization to bucetin, test compound concentration was expressed as a percentage of concentration at the 0-hour time point. Stability in the relevant test solution was then determined by the percent remaining at the 4-hour time point.

[2] = Non-specific protein binding (rapid equilibrium dialysis); type: in vitro ADME, Sprague-Dawley rats; details: both sexes, Sprague-Dawley, RED device, 4-hour incubation at 37° C.
Description: Plasma and tissue exposures of exemplary compounds were scaled by their non-specific affinity for protein binding in target tissues or fluids to determine the fraction of compound available for interaction with the target. Non-specific binding was determined in blood plasma and brain homogenate collected from mixed-sex Sprague-Dawley rats.
Known concentrations of test compounds were mixed with plasma or brain homogenate and incubated in the donor chamber of a rapid equilibrium dialysis (RED) device with empty PBS buffer in the receiving chamber. After a 4-hour incubation at 37° C. in an orbital shaking incubator, compound in each chamber was quantified by LC-MS/MS. The unbound fraction (fu,tissue) was calculated using the following formula:
[formula] • where: • fu,tissue is the unbound fraction in the tissue; • fu,homogenate is the ratio of concentration in the buffer chamber to concentration in the sample chamber; and • D is the dilution factor used to produce the sample.

HGF/MET system = biological target: T1, HGF/MET system (Homo sapiens, UniProt P08581+P14210); assay: Phospho-MET ELISA; type: cell-based; details: HEK293 cells, 1 ng/mL recombinant HGF, 15 minutes, pMET ELISA
T1 construct: HEK293 cells were prepared by passage into 6-well multi-plates; endogenous in cells; host or cells: HEK293
T1 sequence (P08581 308-1390 limits assumed): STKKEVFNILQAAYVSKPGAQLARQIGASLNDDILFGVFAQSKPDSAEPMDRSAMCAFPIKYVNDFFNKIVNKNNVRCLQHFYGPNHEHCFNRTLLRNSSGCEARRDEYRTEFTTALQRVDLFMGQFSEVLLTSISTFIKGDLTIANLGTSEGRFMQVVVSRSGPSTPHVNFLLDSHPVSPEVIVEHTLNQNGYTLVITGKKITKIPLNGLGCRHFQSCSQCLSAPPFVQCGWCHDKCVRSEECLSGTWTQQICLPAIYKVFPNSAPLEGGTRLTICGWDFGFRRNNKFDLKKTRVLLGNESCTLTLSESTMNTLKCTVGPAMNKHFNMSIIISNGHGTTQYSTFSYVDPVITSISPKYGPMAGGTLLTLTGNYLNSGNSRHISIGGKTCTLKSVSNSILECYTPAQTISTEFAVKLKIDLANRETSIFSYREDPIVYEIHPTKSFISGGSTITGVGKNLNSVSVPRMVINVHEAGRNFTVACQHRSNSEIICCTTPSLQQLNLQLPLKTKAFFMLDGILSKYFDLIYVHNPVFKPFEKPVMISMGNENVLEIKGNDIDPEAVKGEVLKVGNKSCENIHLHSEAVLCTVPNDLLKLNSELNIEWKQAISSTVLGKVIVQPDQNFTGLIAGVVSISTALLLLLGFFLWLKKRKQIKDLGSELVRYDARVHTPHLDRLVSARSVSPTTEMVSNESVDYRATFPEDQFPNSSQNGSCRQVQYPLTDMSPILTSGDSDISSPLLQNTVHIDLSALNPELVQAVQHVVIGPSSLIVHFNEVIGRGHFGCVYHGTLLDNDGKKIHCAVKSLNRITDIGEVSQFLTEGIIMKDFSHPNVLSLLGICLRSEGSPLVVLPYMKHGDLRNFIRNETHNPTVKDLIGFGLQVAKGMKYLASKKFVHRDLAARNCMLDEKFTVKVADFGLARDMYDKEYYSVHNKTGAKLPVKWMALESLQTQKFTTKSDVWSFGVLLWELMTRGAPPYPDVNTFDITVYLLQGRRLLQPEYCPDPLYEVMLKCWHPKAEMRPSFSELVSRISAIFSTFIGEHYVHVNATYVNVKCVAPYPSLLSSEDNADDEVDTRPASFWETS
T1 sequence (P14210 32-494 limits assumed): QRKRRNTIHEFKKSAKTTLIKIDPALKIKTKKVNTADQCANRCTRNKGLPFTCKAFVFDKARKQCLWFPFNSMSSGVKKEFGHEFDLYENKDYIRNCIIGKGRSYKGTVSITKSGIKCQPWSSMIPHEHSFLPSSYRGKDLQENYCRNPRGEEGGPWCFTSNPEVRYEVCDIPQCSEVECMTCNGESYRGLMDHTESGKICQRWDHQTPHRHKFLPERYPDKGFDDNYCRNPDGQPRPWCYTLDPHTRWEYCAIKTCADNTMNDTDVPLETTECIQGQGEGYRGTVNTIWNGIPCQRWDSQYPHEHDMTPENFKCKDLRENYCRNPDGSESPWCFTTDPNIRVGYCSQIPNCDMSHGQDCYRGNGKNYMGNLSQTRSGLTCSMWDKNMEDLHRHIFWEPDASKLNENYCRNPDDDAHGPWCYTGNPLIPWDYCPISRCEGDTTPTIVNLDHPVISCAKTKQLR
Description: Compounds were screened for potency towards the HGF/MET system using phospho-MET (pMET) ELISA kits (Cell Signaling). pMET levels were detected in samples having low (1 ng/mL) and high (10 ng/mL) concentrations of HGF.
HEK293 cells were prepared by passage into 6-well multi-plates and grown at 37° C. at 5% CO2 in DMEM+10% FBS until approximately 90% confluent. Cells were then starved for at least 8 hours in serum-free growth media.
Exemplary compounds were prepared in DMEM+0.1% FBS, diluted and added to treatment media with 1 ng/mL recombinant HGF protein (R&D Systems). Cells were incubated in triplicate at 37° C. and 5% CO2 for 15 minutes. Samples were then treated with 180 μL ice-cold RIPA (radioimmunoprecipitation assay) buffer and cells were lysed on ice for 15 minutes. Lysates were cleared by centrifugation at 16,000-g for 15 minutes and the supernatant was retained. Samples were normalized using a BCA assay of lysates to determine protein concentrations across the samples.
Between 50 and 100 μg total protein lysate was loaded into ELISA wells in pMET Sandwich ELISA kit (Cell Signaling Catalog #7227C), ensuring equal protein load in each well. The ELISA was processed according to manufacturer's instructions. After color developed, absorbance was read on an optical plate reader at 450 nm.
Potency measurements were determined using peak efficacy by scaling test compound dose treatments along a scale of 1-10 between 1 ng/mL and 10 ng/mL HGF doses according to the following formula: […]
where y is the normalized data-point, x is the raw data point, A is the mean HGF at 1 ng/mL, and B is the mean HGF at 10 ng/mL.

[3] = In vitro stability in human plasma; type: in vitro ADME; details: 5 μM, 37° C.
Description: as §1, §2

[4] = In vitro stability in simulated gastric and intestinal fluids; type: in vitro ADME; details: 37° C.; for SGF + Enz (compound remaining after 4 hours): SGF with 3.2 mg/ml pepsin; for SGF + Enz (compound remaining after 4 hours) / SIF (compound remaining after 4 hours): 5 μM; for SGF (compound remaining after 4 hours): simulated gastric fluid pH 1.2, 5 μM; for SIF (compound remaining after 4 hours): simulated intestinal fluid pH 6.8 with 10 mg/ml pancreatin
Description: as §1, §2

[5] = In vivo tissue distribution; set-up: species or system Sprague-dawley rats; details: rat
Description: The rate of distribution to target tissues is an important feature of therapeutic molecules. Tissue distribution of exemplary compounds was performed in mixed-sex Sprague-dawley rats. Test compounds were delivered via tail vein injection (IV) and tissues were collected at Tmax (10 minutes post administration). Animals were deeply anesthetized with isoflurane and whole blood was collected from the right atrium and processed by centrifugation to produce plasma. Animals were then fully perfused with PBS administered to the left ventricle to prevent blood contamination of tissues.
Tissues were collected and homogenized, and compound content in the target tissue was quantified by LC-MS/MS. Tissue distribution rates were determined by dividing the tissue concentration of compound by the plasma concentration and multiplying by 100.

[6] = rat blood plasma, read-out: Unbound Fraction Plasma
[7] = rat brain homogenate, read-out: Unbound Fraction Brain

In the case of CCC(C)CN1CC2N(C(=O)c3ccc(C(F)(F)F)cc3)CCC(=O)N2[C@@H](C)C1=O (some centres unmarked) [Compound 1a], the “Rat Plasma (compound remaining after 4 hours)” value [1] is reported as “++ (++ indicates 40-79% compound remaining after 4 hours)”, the fraction unbound at 4 h [2, 6] is reported as 0.5 to 0.9 and the fraction unbound at 4 h [2, 7] is reported as 0.1 to 0.5. The “Potency (augmentation of MET phosphorylation)” value (“Potency” below) (HGF/MET system) was “++++ (++++ indicates maximum potency at or above 0.1 nM)”, the “Human Plasma (compound remaining after 4 hours)” value [3] was “++ (++ indicates 40-79% compound remaining after 4 hours)” and the “SGF + Enz (compound remaining after 4 hours)” value [4] was “++++ (++++ indicates 100% compound remaining after 4 hours)”. The “SGF (compound remaining after 4 hours)” value [4] was “++++ (++++ indicates 100% compound remaining after 4 hours)”, the “SIF (compound remaining after 4 hours)” value [4] was “++++ (++++ indicates 100% compound remaining after 4 hours)” and the “Tissue Distribution (% Plasma exposure at 10 min post IV dose) Brain” value [5] was “++ (++ indicates distribution between 5 and 39%)”. For the same molecule, the “Tissue Distribution (% Plasma exposure at 10 min post IV dose) Cerebellum” value [5] was “++ (++ indicates distribution between 5 and 39%)”, the “Tissue Distribution (% Plasma exposure at 10 min post IV dose) Cortex” value [5] was “++ (++ indicates distribution between 5 and 39%)” and the “Tissue Distribution (% Plasma exposure at 10 min post IV dose) Hippocampus” value [5] was “++ (++ indicates distribution between 5 and 39%)”.

For CCC(C)CN1CC2N(C(=O)c3ccc(OC(F)F)cc3)CCC(=O)N2[C@@H](C)C1=O (some centres unmarked) [Compound 2a], the “Rat Plasma (compound remaining after 4 hours)” value [1] was “++ (++ indicates 40-79% compound remaining after 4 hours)”, the fraction unbound at 4 h [2, 6] was 0.5 to 0.9 and the fraction unbound at 4 h [2, 7] was 0.1 to 0.5. For the same molecule, the “Potency” value (HGF/MET system) was “++ (++ indicates maximum potency at or above 10 nM)”, the “Human Plasma (compound remaining after 4 hours)” value [3] was “++ (++ indicates 40-79% compound remaining after 4 hours)” and the “SGF + Enz (compound remaining after 4 hours)” value [4] was “+++ (+++ indicates 80-99% compound remaining after 4 hours)”. The “SGF (compound remaining after 4 hours)” value [4] was “++++ (++++ indicates 100% compound remaining after 4 hours)”, the “SIF (compound remaining after 4 hours)” value [4] was “++++ (++++ indicates 100% compound remaining after 4 hours)” and the “Tissue Distribution (% Plasma exposure at 10 min post IV dose) Brain” value [5] was “++ (++ indicates distribution between 5 and 39%)”. The “Tissue Distribution (% Plasma exposure at 10 min post IV dose) Cerebellum” value [5] was “+ (+ indicates distribution between 0.05 and 5%)”, the “Tissue Distribution (% Plasma exposure at 10 min post IV dose) Cortex” value [5] was “++ (++ indicates distribution between 5 and 39%)” and the “Tissue Distribution (% Plasma exposure at 10 min post IV dose) Hippocampus” value [5] was “++ (++ indicates distribution between 5 and 39%)”. The “Tissue Distribution (% Plasma exposure at 10 min post IV dose) Muscle” value [5] was “++++ (++++ indicates distribution above 70%)” and the “Tissue Distribution (% Plasma exposure at 10 min post IV dose) Sciatic Nerve” value [5] was “++++ (++++ indicates distribution above 70%)”.

For CCC(C)CN1CC2N(Cc3ccc(O)nc3)CCC(=O)N2[C@@H](C)C1=O (some centres unmarked) [Compound 7a], the fraction unbound at 4 h [2, 6] was > 0.9, the fraction unbound at 4 h [2, 7] was 0.5 to 0.9 and the “Potency” value (HGF/MET system) was “++ (++ indicates maximum potency at or above 10 nM)”. The “SGF + Enz (compound remaining after 4 hours)” value [4] was “+++ (+++ indicates 80-99% compound remaining after 4 hours)”, the “SGF (compound remaining after 4 hours)” value [4] was “++++ (++++ indicates 100% compound remaining after 4 hours)” and the “SIF (compound remaining after 4 hours)” value [4] was “++ (++ indicates 40-79% compound remaining after 4 hours)”. For the same molecule, the “Tissue Distribution (% Plasma exposure at 10 min post IV dose) Brain” value [5] was “+ (+ indicates distribution between 0.05 and 5%)”, the “Tissue Distribution (% Plasma exposure at 10 min post IV dose) Cerebellum” value [5] was “+ (+ indicates distribution between 0.05 and 5%)” and the “Tissue Distribution (% Plasma exposure at 10 min post IV dose) Cortex” value [5] was “+ (+ indicates distribution between 0.05 and 5%)”. For the same molecule, the “Tissue Distribution (% Plasma exposure at 10 min post IV dose) Hippocampus” value [5] was “+ (+ indicates distribution between 0.05 and 5%)”, the “Tissue Distribution (% Plasma exposure at 10 min post IV dose) Muscle” value [5] was “++ (++ indicates distribution between 5 and 39%)” and the “Tissue Distribution (% Plasma exposure at 10 min post IV dose) Sciatic Nerve” value [5] was “++++ (++++ indicates distribution above 70%)”.

In the case of CCC(C)CN1CC2N(C(=O)c3ccc(O)cc3)CCC(=O)N2[C@@H](C)C1=O (some centres unmarked) [Compound 8a], the “Rat Plasma (compound remaining after 4 hours)” value [1] is reported as “++++ (++++ indicates 100% compound remaining after 4 hours)”, the “Potency” value (HGF/MET system) is reported as “+ (+ indicates maximum potency at or above 100 nM)” and the “Human Plasma (compound remaining after 4 hours)” value [3] is reported as “++ (++ indicates 40-79% compound remaining after 4 hours)”. For the same molecule, the “SGF + Enz (compound remaining after 4 hours)” value [4] was “+++ (+++ indicates 80-99% compound remaining after 4 hours)”, the “SGF (compound remaining after 4 hours)” value [4] was “++++ (++++ indicates 100% compound remaining after 4 hours)” and the “SIF (compound remaining after 4 hours)” value [4] was “+++ (+++ indicates 80-99% compound remaining after 4 hours)”.

In the case of CC1C(=O)N(CC2CCC2)CC2N(C(=O)c3ccc(OC(F)F)cc3)CCC(=O)N12 (centres unmarked) [Compound 14], the “Rat Plasma (compound remaining after 4 hours)” value [1] is reported as “+++ (+++ indicates 80-99% compound remaining after 4 hours)”, the fraction unbound at 4 h [2, 6] is reported as 0.1 to 0.5 and the fraction unbound at 4 h [2, 7] is reported as > 0.9. For the same molecule, the “Human Plasma (compound remaining after 4 hours)” value [3] was “+++ (+++ indicates 80-99% compound remaining after 4 hours)”, the “SGF + Enz (compound remaining after 4 hours)” value [4] was “++ (++ indicates 40-79% compound remaining after 4 hours)” and the “SGF (compound remaining after 4 hours)” value [4] was “++ (++ indicates 40-79% compound remaining after 4 hours)”. The “SIF (compound remaining after 4 hours)” value [4] was “+++ (+++ indicates 80-99% compound remaining after 4 hours)”, the “Tissue Distribution (% Plasma exposure at 10 min post IV dose) Brain” value [5] was “++ (++ indicates distribution between 5 and 39%)” and the “Tissue Distribution (% Plasma exposure at 10 min post IV dose) Cerebellum” value [5] was “++ (++ indicates distribution between 5 and 39%)”. For the same molecule, the “Tissue Distribution (% Plasma exposure at 10 min post IV dose) Cortex” value [5] was “++ (++ indicates distribution between 5 and 39%)”, the “Tissue Distribution (% Plasma exposure at 10 min post IV dose) Hippocampus” value [5] was “++ (++ indicates distribution between 5 and 39%)” and the “Tissue Distribution (% Plasma exposure at 10 min post IV dose) Sciatic Nerve” value [5] was “++ (++ indicates distribution between 5 and 39%)”.

For CCCCN1CC2N(C(=O)c3ccc(OC(F)F)cc3)CCC(=O)N2C(C)C1=O (centres unmarked) [Compound 17], the “Rat Plasma (compound remaining after 4 hours)” value [1] was “++ (++ indicates 40-79% compound remaining after 4 hours)”, the “Potency” value (HGF/MET system) was “+++ (+++ indicates maximum potency at or above 1 nM)” and the “Human Plasma (compound remaining after 4 hours)” value [3] was “+++ (+++ indicates 80-99% compound remaining after 4 hours)”. For the same molecule, the “SGF + Enz (compound remaining after 4 hours)” value [4] was “+++ (+++ indicates 80-99% compound remaining after 4 hours)”, the “SGF (compound remaining after 4 hours)” value [4] was “+++ (+++ indicates 80-99% compound remaining after 4 hours)” and the “SIF (compound remaining after 4 hours)” value [4] was “+++ (+++ indicates 80-99% compound remaining after 4 hours)”.

In the case of CC1C(=O)N(CCC2CCCC2)CC2N(C(=O)c3ccc(C(F)(F)F)cc3)CCC(=O)N12 (centres unmarked) [Compound 19], the “Rat Plasma (compound remaining after 4 hours)” value [1] is reported as “+++ (+++ indicates 80-99% compound remaining after 4 hours)”, the “Potency” value (HGF/MET system) is reported as “+++ (+++ indicates maximum potency at or above 1 nM)” and the “Human Plasma (compound remaining after 4 hours)” value [3] is reported as “+++ (+++ indicates 80-99% compound remaining after 4 hours)”. For the same molecule, the “SGF + Enz (compound remaining after 4 hours)” value [4] was “++ (++ indicates 40-79% compound remaining after 4 hours)”, the “SGF (compound remaining after 4 hours)” value [4] was “+++ (+++ indicates 80-99% compound remaining after 4 hours)” and the “SIF (compound remaining after 4 hours)” value [4] was “+ (+ indicates 20-39% compound remaining after 4 hours)”.
